The record followed here is ChEMBL document CHEMBL1201862, “PubChem BioAssay data set” (2004).

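Cultured in 96-well plates, cells were exposed to test compound for 48 hours across five concentrations. The concentration for 50% growth inhibition is given as GI50.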 Calls of active or inactive are those of the source. No stated cut-off is given here; in the data, active = GI50 up to about 1.1 µM and inactive = higher.

Test systems include SF-539; SK-MEL-28; TK-10; NCI-H23; SK-MEL-5; SK-MEL-2; OVCAR-8; A498; COLO 205; RPMI-8226; KM12; HT-29; SF-268; SNB-75; DMS-114; LOX IMVI; IGROV-1; MDA-MB-231; BT-549; SR.
Common to all, as to assay: NCI anticancer screen, dose series, 48 h

On to `NCC(NC(=O)OCc1ccccc1)C(=O)O` (stereo not given), for which the GI50 with SF-539, with SK-MEL-28, with TK-10, in the experiment with NCI-H23, in the experiment with SK-MEL-5 and in the experiment on SK-MEL-2 was > 50 µM (inactive) each time. Besides, the GI50 in the experiment on OVCAR-8, in the experiment with A498, in the experiment with COLO 205, in the experiment on RPMI-8226, in the experiment on KM12 and in the experiment with HT-29 was > 50 µM (inactive) in each case. In addition, the GI50 in the experiment with SF-268, in the experiment with SNB-75, with DMS-114, with LOX IMVI and in the experiment on IGROV-1 was > 50 µM (inactive) in each case.
Turning to `CCN1C[C@]2(C)CC[C@H](OC)C34C1C([C@H](OC(C)=O)[C@@H]32)[C@@]1(OC)C[C@H](OC)[C@H]2C[C@@H]4[C@@H]1[C@H]2O`, the GI50 in the experiment with SF-539, in the experiment on SK-MEL-28, in the experiment with TK-10, in the experiment with NCI-H23, in the experiment on SK-MEL-5 and with SK-MEL-2 was > 100 µM (inactive) throughout. Further, the GI50 in the experiment on OVCAR-8 is > 100 µM (inactive); in the experiment on A498, > 100 µM (inactive); with COLO 205, 55.5 µM (inactive); with RPMI-8226, > 100 µM (inactive); with KM12, > 100 µM (inactive); in the experiment on HT-29, > 100 µM (inactive). Moreover, the GI50 is > 100 µM (inactive) in the experiment with SF-268; > 100 µM (inactive) in the experiment with SNB-75; 82.4 µM (inactive) in the experiment on DMS-114; > 100 µM (inactive) in the experiment on LOX IMVI; > 100 µM (inactive) in the experiment on IGROV-1.
`CCc1ccccc1NC(=O)C1=C(C)NC(C)=C(C(=O)Nc2c(CC)cccc2CC)C1c1ccc2c(c1)OCO2` (stereo not given): the GI50 in the experiment with SF-539 is 21.2 µM (inactive); in the experiment on SK-MEL-28, 18.1 µM (inactive); in the experiment on TK-10 it was 22.3 µM (inactive); in the experiment with NCI-H23, 16.7 µM (inactive); in the experiment on SK-MEL-5, 14.6 µM (inactive); in the experiment on SK-MEL-2, 15.2 µM (inactive). In addition, the GI50 in the experiment with OVCAR-8 was 25.8 µM (inactive); with COLO 205, 19.5 µM (inactive); in the experiment with RPMI-8226 it was 15.8 µM (inactive); in the experiment on KM12, 16.1 µM (inactive); in the experiment with HT-29, 18 µM (inactive); in the experiment with SF-268, 20.3 µM (inactive). For the same compound, the GI50 in the experiment with SNB-75 is 21.8 µM (inactive); in the experiment with DMS-114 it was 20.2 µM (inactive); with LOX IMVI, 16.9 µM (inactive); in the experiment on IGROV-1, 25.4 µM (inactive).
Regarding `Cc1cc(=O)n(-c2ccccc2C)c(C)n1`, the GI50 in the experiment with SF-539, in the experiment on SK-MEL-28, with TK-10, in the experiment with NCI-H23, in the experiment on SK-MEL-5 and in the experiment on SK-MEL-2 was > 100 µM (inactive) throughout. The GI50 in the experiment on OVCAR-8, in the experiment on A498, with COLO 205, in the experiment with KM12, in the experiment with HT-29 and with SF-268 was > 100 µM (inactive) in each case. Moreover, the GI50 in the experiment with SNB-75, in the experiment with DMS-114, in the experiment on LOX IMVI and in the experiment with IGROV-1 was > 100 µM (inactive) in each case.
Take `COc1c(O)ccc(/C=N/NC(=S)NCOCCOC(C)=O)c1OC`: the GI50 in the experiment with SF-539, in the experiment with SK-MEL-28, in the experiment with TK-10, in the experiment with NCI-H23, in the experiment on SK-MEL-5 and in the experiment with SK-MEL-2 was > 100 µM (inactive) each time. In addition, the GI50 in the experiment on OVCAR-8, in the experiment on A498, in the experiment on COLO 205, in the experiment with KM12, in the experiment on HT-29 and in the experiment with SF-268 was > 100 µM (inactive) in each case. The GI50 in the experiment on SNB-75, in the experiment with DMS-114, with LOX IMVI and in the experiment on IGROV-1 was > 100 µM (inactive) each time.
Turning to `COc1cc(/C=C2\CCC/C(=C\c3cc(OC)c(O)c(OC)c3)C2=O)cc(OC)c1O`, the GI50 in the experiment on SF-539 was 2.16 µM (inactive); in the experiment with MDA-MB-231, 2.71 µM (inactive); with SK-MEL-28, 2.69 µM (inactive); in the experiment on TK-10, 5.33 µM (inactive); with NCI-H23 it was 1.35 µM (inactive); in the experiment with SK-MEL-5, 2.28 µM (inactive). Besides, the GI50 with SK-MEL-2 was 2.4 µM (inactive); with OVCAR-8 it was 1.98 µM (inactive); in the experiment with A498, 1.41 µM (inactive); in the experiment with COLO 205 it was 9.38 µM (inactive); in the experiment on RPMI-8226 it was 1.55 µM (inactive); in the experiment on KM12 it was 1.38 µM (inactive). Also, the GI50 with HT-29 was 12.9 µM (inactive); in the experiment with BT-549 it was 1.53 µM (inactive); with SF-268, 2.61 µM (inactive); in the experiment with SNB-75, 9.86 µM (inactive); in the experiment on LOX IMVI, 1.91 µM (inactive); in the experiment on SR, 3.8 µM (inactive). In addition, the GI50 with IGROV-1 is 1.22 µM (inactive).
In the case of `COc1cc(/C=N/N=C(\N)NO)ccc1O`, the GI50 was 46.3 µM (inactive) in the experiment with SF-539; 26 µM (inactive) in the experiment on SK-MEL-28; 57.1 µM (inactive) in the experiment with NCI-H23; 53 µM (inactive) with SK-MEL-5; 69.3 µM (inactive) in the experiment on SK-MEL-2; 63.7 µM (inactive) in the experiment on OVCAR-8. Moreover, the GI50 in the experiment on A498 was 44.9 µM (inactive); in the experiment with COLO 205, > 100 µM (inactive); with RPMI-8226 it was > 100 µM (inactive); in the experiment with KM12, 77.1 µM (inactive); in the experiment on HT-29 it was 67.8 µM (inactive); in the experiment on SF-268, 56 µM (inactive). For the same compound, the GI50 was 39.9 µM (inactive) in the experiment on DMS-114, 30.5 µM (inactive) in the experiment on LOX IMVI and > 100 µM (inactive) with IGROV-1.
`O=C1c2ccccc2-n2c1nc1ccccc1c2=O` [TRYPTANTHRIN]: the GI50 in the experiment with SF-539 is 20.7 µM (inactive); in the experiment with MDA-MB-231 it was 16.7 µM (inactive); in the experiment with SK-MEL-28, 15.8 µM (inactive); in the experiment on TK-10, > 43.3 µM (inactive); in the experiment on NCI-H23 it was 9.73 µM (inactive); in the experiment with SK-MEL-5 it was 13.1 µM (inactive). The GI50 in the experiment with SK-MEL-2 was 10.1 µM (inactive); in the experiment on OVCAR-8, 5.79 µM (inactive); with A498, 18.2 µM (inactive); in the experiment with COLO 205, 12.8 µM (inactive); in the experiment on RPMI-8226, 1.04 µM (active); in the experiment on KM12, 6.62 µM (inactive). Moreover, the GI50 was 14.8 µM (inactive) in the experiment on HT-29; 14.6 µM (inactive) in the experiment with BT-549; 19.9 µM (inactive) with SF-268; 30.8 µM (inactive) in the experiment on SNB-75; 4.44 µM (inactive) in the experiment with LOX IMVI; 8.47 µM (inactive) in the experiment with SR. The GI50 in the experiment with IGROV-1 was 23 µM (inactive).
